Consider one compound from US10039806B2, “Methods and compositions for treating antiprogestin-resistant cancers” (Fundación Sales, priority 2011, dated 2018).

For assay [1], the system named is IBH-6-PRA tumors. As to the kind of experiment: Xenograft in nude mice. The class given is in vivo, human. The source says: (§1) BH-6 cell line was developed from an invasive ductal breast carcinoma (1). IBH-6 cells express basal levels of hormone receptors, they are tumorigenic and in vivo express higher levels of PRB than PRA (2). Cells were transfected with human PRB, PRA (pSG5-PRB, pSG5-PRA, kindly provided by K. Horwitz) or with the empty vector (pSG5), together with a plasmid encoding the neomycin resistance gene pIRES-N1(3), using Lipofectamine transfection reagent (Invitrogen) following the manufacturer's instructions. Transfected and selected cells were cultured in medium supplemented with […] G418 (neomycin analogue, GIBCO). The expression of PRB and PRA were analyzed by western blot and immunofluorescence (using Ab7 and Ab6 antibodies from Thermo Fisher). T47D-YA or YB were kindly provided by K. Horwitz and cultured as previously described (4).
(§2) Transfected and selected cells were grown up to confluence, washed with PBS, detached with 0.25% trypsin, centrifuged at 1000 rpm for 10 min and resuspended in a final concentration of 10^6 (IBH-6) or 5×10^6 (T47D) cells per 100 μl of culture medium. The cells were sc inoculated into the right flank of nu/nu (IBH-6) or NOD/LtSz-scid/IL-2Rgamma null (T47D-YA or -YB cells) female mice. Only in experiments involving T47D cells E2 silastic pellets (0.5 mg) were implanted sc into the back of the animals one week prior tumor cell inoculation and 70 μl of Matrigel were mixed with the cell suspension at the moment of injection. MFP (6 mg) silastic pellets were sc implanted when tumors reached 20-40 mm^2. For T47D cells, experiments were repeated inoculating both cell types (T47D-YA or -YB) simultaneously in the left or right flank of the mouse, respectively.
Cytosolic or nuclear extracts were processed for western blots as described previously (5). The cells were lysed using Mammalian Protein Extraction Reagent (Pierce, Rockford, Ill.) according to the manufacturer's instructions. […] The band intensities from 3-4 different samples in different western blots were quantified using Image Quant software.
(In general: Xenograft models place foreign cells or tissue in a host animal.)

Assay [2] deals with T47D-YA tumors. The experiment in a line: Xenograft in NOD/LtSz-scid/IL-2Rgamma null mice. The class given is in vivo, human.
From the text: as §1, §2
(§3) Sections of formalin-fixed, paraffin-embedded tissue were stained with PR (C-19), or Ki67 (Dako, M7248) antibodies using the avidin-biotin-peroxidase complex technique (Vectastain Elite ABC kit; Vector), as described previously (6). Positive cells were counted in 10 high-power fields (HPFs) of each section, using 1000× magnification, and expressed as the mean±SEM of the ratio between the number of positive events and the total cell number.

For assay [3], the system named is T47D-YB tumors. The experiment in a line: Xenograft in NOD/LtSz-scid/IL-2Rgamma null mice. The class given is in vivo, human.
From the text: as §1, §2, §3

Assay [4] concerns thymic, renal pelvis, colon, pancreatic carcinomas, leiomyosarcoma, histiocytoma. To be noted: 200 mg/day; cited from earlier work.
The subject of assay [5] is mammary gland. To be noted: cited from earlier work.
Assay [6] has as its system prostate and ovarian cancer xenografts. The note with it: 50 mg/kg/day; cited from earlier work.
In assay [7] the target is T1, PR (Homo sapiens, UniProt P06401).
T1 sequence (P06401 1-933): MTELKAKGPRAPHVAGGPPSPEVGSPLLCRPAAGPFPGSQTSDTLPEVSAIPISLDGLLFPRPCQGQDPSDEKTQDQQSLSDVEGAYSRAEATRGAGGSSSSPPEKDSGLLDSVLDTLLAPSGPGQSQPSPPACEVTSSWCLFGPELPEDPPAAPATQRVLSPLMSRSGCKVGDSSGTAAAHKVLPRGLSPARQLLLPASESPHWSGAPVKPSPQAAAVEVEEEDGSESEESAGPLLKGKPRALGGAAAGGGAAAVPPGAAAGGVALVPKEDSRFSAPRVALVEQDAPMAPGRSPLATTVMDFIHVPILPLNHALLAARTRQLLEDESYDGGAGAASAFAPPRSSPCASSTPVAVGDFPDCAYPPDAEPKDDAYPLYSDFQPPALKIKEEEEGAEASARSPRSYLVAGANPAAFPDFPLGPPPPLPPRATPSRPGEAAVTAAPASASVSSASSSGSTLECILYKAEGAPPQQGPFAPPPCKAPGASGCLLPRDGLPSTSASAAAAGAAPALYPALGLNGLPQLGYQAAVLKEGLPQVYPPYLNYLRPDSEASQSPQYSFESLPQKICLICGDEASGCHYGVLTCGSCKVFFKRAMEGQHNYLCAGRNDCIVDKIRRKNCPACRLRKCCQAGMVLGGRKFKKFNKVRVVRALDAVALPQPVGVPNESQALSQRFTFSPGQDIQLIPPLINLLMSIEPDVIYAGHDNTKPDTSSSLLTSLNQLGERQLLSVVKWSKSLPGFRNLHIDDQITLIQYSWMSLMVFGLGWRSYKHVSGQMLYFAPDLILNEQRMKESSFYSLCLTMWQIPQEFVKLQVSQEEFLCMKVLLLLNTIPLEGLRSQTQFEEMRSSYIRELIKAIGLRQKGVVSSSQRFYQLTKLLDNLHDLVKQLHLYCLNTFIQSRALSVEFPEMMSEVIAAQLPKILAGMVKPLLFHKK
To be noted: T47D cells transfected with MMTV-CAT; cited from earlier work.

Molecules are shown by their SMILES.

For `CC#C[C@]1(O)CC[C@H]2[C@@H]3CCC4=CC(=O)CCC4=C3[C@@H](c3ccc(N(C)C)cc3)C[C@@]21C` [RU-486, mifepristone], in assay [1] (MFP 6 mg pellet, p<0.05), the in vivo growth result was “inhibited”. Moreover, the “expression of MYC” value in assay [1] (western blot, p<0.01) was “significantly inhibited”. Moreover, the “expression of CCND1” value in assay [1] (western blot, p<0.05) is given as “significantly inhibited”. Further, the tumor size result in assay [2] (MFP pellet, E2 pellet 0.5 mg, p<0.05) was “reduced their size”. For the same compound, in assay [2] (in vivo), the “mitotic figures and apoptosis” value was “Few mitotic figures and a high degree of apoptosis”; the “nuclear MYC or CCND1 expression (IHC)” value was “decreased levels of nuclear MYC or CCND1 expression”; the tumor morphology result was “morphological signs of tumor regression”. In addition, the tumor size result in assay [3] (MFP pellet, E2 pellet 0.5 mg) is “no significant differences”. In assay [3] (in vivo), the “nuclear MYC or CCND1 staining (IHC)” value is listed as “intense nuclear staining”. In addition, in assay [4], the clinical outcome is “Improvements and pain relief were observed in all patients”. The “PR activation in luminal cells” value in assay [5] ((5 mg/kg) body weight) is “induced activation of the PR in luminal cells to an even greater degree than did the pure agonist R5020”. In addition, the MPA-induced branching result in assay [5] (BALB/c female mice, 10 mg/kg daily, one week) is given as “reverted MPA-induced branching”. For the same compound, in assay [5] (PR-A transgenic mice or FGF2-treated mice), the mammary hyperplasia entry is “unable to revert mammary hyperplasia”. Also, in assay [6], the xenograft growth entry was “inhibitory”. In assay [7], the “effect in cells treated with analogs of cyclic AMP” value is recorded as “exerts an agonistic effect”.
